Values belong to the compound of their own block, whether it stands above or below them.
Assays:
[1] = molecular target: T1, LGp40 (GAPDH of L. gasseri) (Lactobacillus gasseri, UniProt A0A1V3Y2M1); assay: X-ray crystallography, […] A; settings: NAD-binding site, Asp38 hydrogen bonds; crystals at pH 6.5
T1 construct: gene gap; His6-tagged, pET21b, E. coli BL21(DE3), Ni-NTA then Q column; 37 kDa; tetramer through crystal symmetry

human plasminogen = molecular target: T2, human plasminogen (Homo sapiens, UniProt P00747); assay: competitive solid-phase binding assay (ELISA), displacement of GAPDH; settings: competition with 125 ng His-tagged bacterial GAPDH; EACA 1.25 to 10 mM; lysine analog
T2 construct: gene PLG; commercial (BioVision), 1 microgram coated on polystyrene plate

[2] = molecular target: LGp40, His-tagged recombinant glyceraldehyde-3-phosphate dehydrogenase (GAPDH) of Lactobacillus gasseri (Lactobacillus gasseri (BCRC14619)); assay: crystal structure; X-ray, 1.88 A, space group I4(1)22; one LGp40 copy in the asymmetric unit, tetramer through crystal symmetry; crystals from 0.1 M sodium cacodylate pH 6.5, 16% w/v PEG 4000, 25 C

T2 sequence (P00747 20-810): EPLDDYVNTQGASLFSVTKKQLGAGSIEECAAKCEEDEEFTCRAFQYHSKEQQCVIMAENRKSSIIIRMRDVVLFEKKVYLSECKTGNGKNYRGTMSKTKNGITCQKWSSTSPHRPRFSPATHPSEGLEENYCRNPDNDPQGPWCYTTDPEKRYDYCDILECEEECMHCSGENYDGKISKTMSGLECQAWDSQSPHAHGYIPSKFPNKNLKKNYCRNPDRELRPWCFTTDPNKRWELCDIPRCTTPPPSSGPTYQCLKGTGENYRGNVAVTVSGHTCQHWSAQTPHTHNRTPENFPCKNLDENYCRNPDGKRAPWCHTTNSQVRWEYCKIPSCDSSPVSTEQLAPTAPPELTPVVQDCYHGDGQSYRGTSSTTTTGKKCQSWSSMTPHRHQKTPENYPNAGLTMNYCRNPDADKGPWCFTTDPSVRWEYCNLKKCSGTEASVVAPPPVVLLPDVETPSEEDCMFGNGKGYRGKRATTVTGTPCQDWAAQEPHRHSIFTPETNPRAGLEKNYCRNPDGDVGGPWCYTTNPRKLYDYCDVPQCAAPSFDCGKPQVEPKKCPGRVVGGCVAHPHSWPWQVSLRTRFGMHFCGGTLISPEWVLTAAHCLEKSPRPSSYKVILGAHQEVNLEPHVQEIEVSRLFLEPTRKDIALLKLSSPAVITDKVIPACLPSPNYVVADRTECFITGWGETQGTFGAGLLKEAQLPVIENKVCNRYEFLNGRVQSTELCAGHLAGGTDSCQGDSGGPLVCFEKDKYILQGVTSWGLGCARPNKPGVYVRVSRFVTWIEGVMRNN

Compound: NC(=O)c1ccc[n+]([C@@H]2O[C@H](COP(=O)(O)OP(=O)(O)OC[C@H]3O[C@@H](n4cnc5c(N)ncnc54)[C@H](O)[C@@H]3O)[C@@H](O)[C@H]2O)c1 [NAD^+]
X-ray crystallography, 1.88 A [1]: contributes two hydrogen-bond interactions with NAD^+ to provide stronger binding forces

Compound: NCCCCCC(=O)O [EACA]
competitive solid-phase binding assay (ELISA), displacement of GAPDH (human plasminogen): a competitive binding assay using EACA, a lysine analog

stoichiometry N [2]: 4
Compound: LGp40, His-tagged recombinant glyceraldehyde-3-phosphate dehydrogenase (GAPDH) of Lactobacillus gasseri (enzyme)

— PMC9520948, “Moonlighting glyceraldehyde-3-phosphate dehydrogenase (GAPDH) protein of Lactobacillus gasseri attenuates allergic asthma via immunometabolic change in macrophages” (Journal of Biomedical Science, 2022)
